“Also recorded” adds a separate entry of the source. Values belong to the molecule of their own block, whether it stands above or below them. Square brackets hold non-standard residues; d marks the D form. Ends that are not written are not given here. Hyp = O=C(O)[C@@H]1C[C@@H](O)CN1
Key:
[1] = tested on: MCF-7 subline made resistant to tamoxifen in culture (MCF-7/Tam xenografts); experiment: Human breast cancer xenograft assay, tamoxifen-resistant MCF-7 subline; format: in vivo; details: E2-supplemented SCID mice; peptide 1 μg i.p. twice a day, tamoxifen 50 μg i.p. once a day; day 30
Method: (§1) FIGS. 9a and 9b illustrate the effect of AFP-derived peptide on growth of estrogen-receptor-positive MCF-7 and MCF-7/Tarn human breast cancer xenografts. Tumors were implanted as described in Materials and Methods. Estrogen (●) was provided via a slow-release pellet of estradiol (E2) implanted s.c. Peptide (▴) was given twice a day i.p. at a dose of 1 μg per injection. […] Tumor volumes in each mouse were measured at the time of tumor implantation, again at day 15 after tumor implantation during survival laparotomy and again at day 30 after tumor implantation during necropsy. There was a minimum of 5 mice per group.
Cell Lines. T47D and MDA-231 human breast cancer cell lines were purchased from the American Type Culture Collection (Manassas, Va.). […]
(§2) Human Breast Cancer Xenograft Assay. […] Tumor growth was monitored during survival laparotomy at 10 day intervals by measurement of the diameters of the short (d) and long axes (D) of each tumor, using a dissecting microscope equipped with an ocular micrometer. Tumor volumes were calculated using the formula (π/6) (d)^2 D, assuming the tumor shape to be an ellipsoid of revolution around its long axis (D). […] Mean tumor volume±standard error in each group was calculated for display of growth curves. […]

immature mouse uterus = experiment: Uterotrophic effect of test agent alone on immature mouse uterus; details: agent alone i.p.; peptide up to 10 μg/mouse
Method: Various doses indicated on the abscissa of each test agent were injected i.p. Twenty-two hours later uteri were harvested and weighed. Mean normalized uterine weights (mg uterine weight/g mouse body weight) for each group are shown on the ordinate. In FIG. 13b, Pep (1 μg) or vehicle (saline, 0.2 ml) were injected i.p. One hour later E2 (0.5 μg) or Tam (1.0 μg) were injected i.p. Twenty-two hours later uteri were harvested and weighed.
A bioassay for anti-estrotrophic activity was performed using an immature mouse uterine growth assay (22). Swiss/Webster female mice, 6–8 g in body weight (13–15 days old), were obtained from Taconic Farms (Germantown, N.Y.). […] In a typical experiment, each group received two sequential intraperitoneal injections spaced one hour apart. Test material or vehicle control for that material was contained in the first injectant. Estradiol (E2) or vehicle control for E2 was contained in the second injectant. Twenty-two hours after the second injection, uteri were dissected, trimmed free of mesenteries, and immediately weighed. […] Experiments employed a minimum of five mice per group, and the mean normalized uterine weight±standard error for each group was calculated. Percent growth inhibition in a test group was calculated from the normalized uterine wet weights as described below. […]

[2] = tested on: MCF-7 human breast cancer xenografts; experiment: Human breast cancer xenograft assay, MCF-7; format: in vivo; details: E2-supplemented SCID mice; peptide 1 μg i.p. twice a day, tamoxifen 50 μg i.p. once a day; 30-day observation
Method: FIG. 5 illustrates the anti-estrotrophic activity of hydroxyproline-substituted linear peptide against MCF-7 human breast cancer xenografts. There were five to eight replicate mice per treatment group. Estrogen was provided via a slow release pellet implanted subcutaneously. Peptide was given twice a day i.p. at a dose of 1 μg per mouse. Tumor volumes in each mouse were measured at the time of tumor implantation and at 10-day intervals thereafter during survival laparotomies.
as §1, with “Methods.” for “Methods. Estrogen (●) was provided via a slow-release pellet of estradiol (E2) implanted s.c. Peptide (▴) was given twice a day i.p. at a dose of 1 μg per injection.”, “There was a minimum of 5 mice per group.” left out
as §2

[3] = tested on: MCF-7 human breast cancer xenografts; details: Bennett et al. 1998; cited from earlier work
[4] = tested on: estrogen-receptor-negative MDA-MB-231 human breast cancer xenografts; experiment: Human breast cancer xenograft assay, MDA-MB-231; format: in vivo; details: SCID mice, peptide 1 μg i.p. twice a day, tamoxifen 50 μg i.p. once a day, 30-day observation
[5] = tested on: estrogen-receptor-positive T47D human breast cancer xenografts; experiment: Human breast cancer xenograft assay, T47D; format: in vivo; details: E2-supplemented SCID mice; peptide 1 μg i.p. twice a day; 30-day observation
estrogen receptor = molecular target: T1, estrogen receptor (Oryctolagus cuniculus, UniProt G1SML6); experiment: Assessment of estrogen receptor antagonism ([3H]estradiol binding, rabbit uterine cytosol)
T1 sequence (G1SML6 1-598): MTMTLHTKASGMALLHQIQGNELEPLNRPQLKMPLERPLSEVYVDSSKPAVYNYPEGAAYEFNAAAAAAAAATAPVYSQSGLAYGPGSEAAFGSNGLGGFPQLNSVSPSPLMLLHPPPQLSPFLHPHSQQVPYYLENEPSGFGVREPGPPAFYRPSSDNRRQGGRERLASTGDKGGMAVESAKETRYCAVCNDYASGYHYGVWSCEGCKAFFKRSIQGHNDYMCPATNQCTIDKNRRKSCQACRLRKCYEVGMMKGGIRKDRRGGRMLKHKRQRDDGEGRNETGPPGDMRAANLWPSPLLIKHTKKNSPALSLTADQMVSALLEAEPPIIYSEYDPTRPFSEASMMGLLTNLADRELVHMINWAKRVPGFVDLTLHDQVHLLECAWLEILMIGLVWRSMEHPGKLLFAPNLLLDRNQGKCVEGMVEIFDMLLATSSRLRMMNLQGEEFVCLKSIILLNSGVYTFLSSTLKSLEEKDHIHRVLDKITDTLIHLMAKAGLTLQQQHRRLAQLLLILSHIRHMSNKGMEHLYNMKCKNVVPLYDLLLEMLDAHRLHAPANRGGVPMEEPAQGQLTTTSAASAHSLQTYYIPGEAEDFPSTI
Method: (§3) Rabbit uterine cytosol was used as a source of estrogen receptor.
as §3
Assessment of Estrogen Receptor Antagonism. Commercially obtained rabbit uteri (Pel-Freez Biological, Rogers, Ark.) were used as a source of estrogen receptor. […] Total count tubes received 20 μl of [3H]estradiol and 180 μl of assay buffer. After incubation overnight at 4° C., all but the total count tubes received 300 μl of dextran-coated charcoal suspension; tubes were agitated for 15 min and then centrifuged (1,000×g) for 15 min. Supernatants were decanted into counting vials, scintillant was added, and protein-bound tritium was determined by liquid scintillation counting.

[6] = tested on: E2-stimulated growth of immature mouse uterus; experiment: Immature mouse uterine growth assay (anti-estrotrophic activity); format: in vivo; details: for inhibition of the uterotrophic effect of estradiol: Pep 1 μg i.p. one hour before E2 0.5 μg i.p., uteri weighed 22 h later (FIG. 13b); for optimal dose for inhibition of estrogen-stimulated growth of mouse uterus: i.p., biphasic dose-response (FIG. 1a)
Method: FIGS. 1a and 1b illustrate the anti-uterotrophic activity of octapeptide, SEQ ID NO: 2, […], measured in the immature mouse uterine growth assay. Peptide or vehicle control was injected i.p. into immature female Swiss mice. One hour later 0.5 μg of E2 vehicle control was injected i.p. into these mice. Twenty-two hours later, uteri were dissected and weighed. Percent inhibition of E2-stimulated growth of uterus by peptide was calculated as described in Materials and Methods. There were five to eight replicate mice per treatment group.
(§4) Immature Mouse Uterine Growth Assay.
Differences between groups were evaluated, employing the non-parametric Wilcoxon Sum of Ranks test (one-sided). In all cases, growth inhibitions that were greater than 25% were significant at p≦0.05.

[7] = tested on: tamoxifen-stimulated growth of immature mouse uterus; experiment: Inhibition of tamoxifen-stimulated growth of immature mouse uterus; format: in vivo; details: Pep 1 μg i.p. one hour before Tam 1.0 μg i.p., uteri weighed 22 h later
Excerpt: as §4

[8] = Preliminary pharmacokinetic studies in mice; format: in vivo

Molecule: CC/C(=C(\c1ccccc1)c1ccc(OCCN(C)C)cc1)c1ccccc1 [tamoxifen, reference compound]
effect on growth (tumor volume vs E2 alone) of tamoxifen-resistant MCF-7 subline xenografts [1]: resistant to tamoxifen in vivo; also recorded: only minimally effective | uterotrophic effect on immature mouse uterus (immature mouse uterus): stimulate the growth of the immature mouse uterus | effect on growth (tumor volume vs E2 alone) of MCF-7 xenografts [2]: prevented growth; also recorded: no increase in tumor volume | effect on MCF-7 breast cancer xenograft growth in an earlier study [3]: shown to stop MCF-7 breast cancer xenograft growth | effect on growth of MDA-MB-231 xenografts [4]: Neither peptide nor tamoxifen were effective; also recorded: did not affect the growth | effect on growth (tumor volume vs E2 alone) of T47D xenografts [5]: prevented growth

competition/interference with estrogen binding to the estrogen receptor (estrogen receptor; cell-free system, no concentration stated): does not interfere | interference with E2 binding to ER (estrogen receptor; peptide concentration range of 10^−10M to 10^−5M): no interference
Molecule: EMTOVNOG (EMT[Hyp]VN[Hyp]G; listed as Homo sapiens) [SEQ ID NO: 4]
effect on growth (tumor volume vs E2 alone) of tamoxifen-resistant MCF-7 subline xenografts [1]: completely prevented the xenograft growth; also recorded: completely stopped the growth | inhibition of the uterotrophic effect of estradiol ([6]; listed as Pep): significantly different | inhibition of the uterotrophic effect of estradiol ([6]; listed as peptide): inhibited | inhibition of the uterotrophic effect of tamoxifen [7]: significantly inhibited | inhibition of the uterotrophic effect of tamoxifen ([7]; listed as peptide): inhibited | effect on growth (tumor volume vs E2 alone) of MCF-7 xenografts [2]: prevented growth; also recorded: no significant increase in tumor volume | effect on growth of MDA-MB-231 xenografts [4]: Neither peptide nor tamoxifen were effective; also recorded: no effect on the growth | effect on growth of MDA-MB-231 xenografts ([4]; listed as AFP-derived peptide): no differences in tumor volumes between any of the groups | biological half-life [8]: two to three | effect on growth (tumor volume vs E2 alone) of T47D xenografts [5]: completely prevented tumor growth

Molecule: EMTPVNPG (listed as Homo sapiens) [SEQ ID NO: 6, amino acids 472–479 of alpha-fetoprotein]
optimal dose for inhibition of estrogen-stimulated growth of mouse uterus [6]: ~1 μg/mouse | biological activity of stored inactive peptide after brief treatment with 4M urea [6]: regenerated

Molecule: QMTPVNPG (listed as Homo sapiens) [SEQ ID NO: 2]
% Inhibition of E2-Stimulated Growth of Immature Mouse Uterus ± SE ([6]; Storage Time: Fresh, 1 μg peptide i.p.): 38 ± 3% | % Inhibition of E2-Stimulated Growth of Immature Mouse Uterus ± SE ([6]; Stored over 1 year (lyophilized, −20° C.), 1 μg peptide i.p.): 0 ± 2% | % Inhibition of E2-Stimulated Growth of Immature Mouse Uterus ± SE ([6]; after Urea Treatment (4 M urea, room temperature, one hour) of agent II (stored over 1 year) or IV (fresh), 1 μg i.p.): 34 ± 4% | anti-estrotrophic activity after storage (shelf-life) ([6]; after five weeks of storage at −20° C. lyophilized, 1 μg per mouse (FIG. 1b)): diminished to insignificant levels | optimal dose for inhibition of estrogen-stimulated growth of mouse uterus [6]: 1 μg/mouse | biological activity of higher molecular weight gel-filtration fraction of aged peptide ([6]; left side of peak (FIG. 2b), 1 μg i.p.): biologically inactive | biological activity of lower molecular weight gel-filtration fraction of aged peptide ([6]; right side of peak (FIG. 2b), 1 μg i.p.): active | biological activity of aged peptide ([6]; stored in the lyophilized state at −20° C. for over one year): completely biologically inactive | biological activity of stored inactive peptide after brief treatment with 4M urea [6]: restored its biological activity
